# What was measured:
# [1] = Aqueous solubility of compound at pH 7.4; type: physicochemical
# [2] = biological target: Epidermal growth factor receptor (Mus musculus, UniProt Q01279); experiment: Displacement of probe N-(4-(4-(3-((4-((3-chloro-4-fluorophenyl)amino)-7-methoxyquinazolin-6-yl)oxy)propyl)piperazin-1-yl)-4-oxobutyl)-3-(5,5-difluoro-7,9-dimethyl-5H-5l4,6l4-dipyrrolo[1,2-c:2',1'-f][1,3,2]diazaborinin-3-yl)propenamide from C-terminal His-tagged wild type mouse EGFR incubated for 30 mins by probe displacement based TR-FRET assay
# [3] = biological target: Cyclin-dependent kinase 2 (Homo sapiens, UniProt P24941); experiment: Binding affinity to human Avi-tagged CDK2 expressed in Escherichia coli BL21 DE3 assessed as dissociation constant by Surface plasmon resonance analysis
# [4] = Chromatographic hydrophobicity index, log D of the compound by HPLC analysis; type: physicochemical
# Chain of Epidermal growth factor receptor (Q01279 whole entry): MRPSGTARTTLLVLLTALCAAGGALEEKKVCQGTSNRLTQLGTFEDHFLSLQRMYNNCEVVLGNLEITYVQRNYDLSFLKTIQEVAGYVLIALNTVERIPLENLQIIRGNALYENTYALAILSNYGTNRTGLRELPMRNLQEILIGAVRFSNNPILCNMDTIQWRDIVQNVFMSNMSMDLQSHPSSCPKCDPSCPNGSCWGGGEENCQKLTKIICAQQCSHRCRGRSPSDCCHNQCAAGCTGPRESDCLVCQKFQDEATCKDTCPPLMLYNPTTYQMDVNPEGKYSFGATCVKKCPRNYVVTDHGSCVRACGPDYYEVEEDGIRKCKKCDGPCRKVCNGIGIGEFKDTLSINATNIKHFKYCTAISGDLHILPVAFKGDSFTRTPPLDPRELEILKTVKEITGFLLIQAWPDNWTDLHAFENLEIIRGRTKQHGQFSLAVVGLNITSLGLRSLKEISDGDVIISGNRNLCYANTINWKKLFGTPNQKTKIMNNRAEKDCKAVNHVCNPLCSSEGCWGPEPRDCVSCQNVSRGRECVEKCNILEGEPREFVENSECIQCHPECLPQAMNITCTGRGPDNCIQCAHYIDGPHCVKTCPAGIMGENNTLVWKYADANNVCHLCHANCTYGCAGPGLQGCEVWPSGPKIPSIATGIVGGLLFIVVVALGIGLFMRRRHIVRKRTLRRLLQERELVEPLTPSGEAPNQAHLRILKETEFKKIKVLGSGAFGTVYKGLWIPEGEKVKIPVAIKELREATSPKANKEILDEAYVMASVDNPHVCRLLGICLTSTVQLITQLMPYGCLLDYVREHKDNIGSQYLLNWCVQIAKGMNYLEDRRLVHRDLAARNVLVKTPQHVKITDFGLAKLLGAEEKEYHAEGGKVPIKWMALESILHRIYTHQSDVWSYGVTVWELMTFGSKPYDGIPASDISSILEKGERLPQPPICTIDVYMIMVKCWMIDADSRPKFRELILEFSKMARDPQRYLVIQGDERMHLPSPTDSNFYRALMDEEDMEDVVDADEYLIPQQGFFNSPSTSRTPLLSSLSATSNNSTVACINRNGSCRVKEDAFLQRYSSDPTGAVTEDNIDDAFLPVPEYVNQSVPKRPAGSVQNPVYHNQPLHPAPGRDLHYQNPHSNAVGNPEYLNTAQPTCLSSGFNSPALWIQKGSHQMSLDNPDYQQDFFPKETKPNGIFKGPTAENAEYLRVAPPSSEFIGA
SMILES,solubility [1] [µM],IC50 [2] [µM],Kd [3] [µM],chromatographic logD [4]
O=C(Nc1ccccc1)NC1CCCC1,85,200,1000,2.4
CN(C(=O)N(C)C1CCCC1)c1ccccn1,114,> 1000,15800,2.2
CN(C(=O)N(C)C1CCCC1)c1ccccc1,77,126,3160,3.6

# Second part, the compound after the results:
solubility [1] [µM],IC50 [2] [µM],Kd [3] [µM],chromatographic logD [4],SMILES
104,100,7940,2.7,CN(C(=O)NC1CCCC1)c1ccccc1
87,> 1000,1580,3,CN(C(=O)NC1CCCC1)c1ccccn1
102,794,2510,2.1,CN(C(=O)Nc1ccccn1)C1CCCC1
98,> 1000,2000,2.8,CN(C(=O)Nc1ccccc1)C1CCCC1
93,398,398,2.4,O=C(Nc1ccccn1)NC1CCCC1
